# Experimental data reported in patent US20070292483A1, “REDUCING MUSCLE SORENESS WITH GLUCOSAMINE COMPOSITIONS” (Stokely-Van Camp, Inc., priority 2006, published 2007).
# Assay: storage study of relatively neutral pH beverage compositions containing glucosamine
# Assay type: physicochemical
# Description: Special considerations in packaging, shipping, and or formulations may also be considered when delivering a targeted amount of glucosamine in the beverage compositions. As an example, shake-type beverages, such as the beverage composition provided in Table 3, are generally formulated to have a relatively neutral pH value.
# Such a formulation was determined to deliver 1,500 mg of glucosamine based on results from a storage study. During the study, in which such beverages were stored for a period of 12 months at ambient (73 degrees Fahrenheit) temperature, it was determined that approximately 77% of glucosamine originally present had degraded during a 12 month storage period. Thus, information regarding the average shelf-life and/or delivery mechanisms for specific products may be utilized when formulating the beverage compositions. Such factors may include the temperature, time to consumption, packaging the compositions are stored within, among others.
Structure (SMILES),degradation rate in beverage (formulated in beverages having neutral pHs (shake-type)),"glucosamine originally present that had degraded during storage (relatively neutral pH beverage, around about 20 mg/ml glucosamine, stored 12 months at ambient (73 degrees Fahrenheit) temperature)"
"Cl.N[C@H]1C(O)O[C@H](CO)[C@@H](O)[C@@H]1O (some centres unmarked) [Glucosamine hydrochloride, glucosamine hydrochloride]",degrades at a quickened rate,–
N[C@H]1C(O)O[C@H](CO)[C@@H](O)[C@@H]1O (some centres unmarked) [glucosamine],–,approximately 77%
